The assay relates to BDF1 mice, P388 leukemia ip, median survival T/C. The assay is described as follows: NCI In Vivo Anticancer Drug Screen. Data for tumor model P388 Leukemia (intraperitoneal) in B6D2F1 (BDF1) mice. The conditions noted are these: endpoint: median survival time, higher = longer survival. The method in brief:
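T/C = treated-group survival ÷ vehicle-control survival; tumour transplanted into mice before dosing.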

Where [1] appears, read: dose: 25.0 mg/kg/injection, schedule: Q01DX009 (ip), vehicle: saline with Tween-80.
The mark [2] stands for this setting: dose: 50.0 mg/kg/injection, schedule: Q01DX009 (ip), vehicle: saline with Tween-80.
Where [3] appears, read: dose: 100.0 mg/kg/injection, schedule: Q01DX009 (ip), vehicle: saline with Tween-80.
[4] abbreviates: dose: 50.0 mg/kg/injection, schedule: Q04DX003 (ip), vehicle: saline with Tween-80.
[5] abbreviates: dose: 100.0 mg/kg/injection, schedule: Q04DX003 (ip), vehicle: saline with Tween-80.
[6] abbreviates: dose: 200.0 mg/kg/injection, schedule: Q04DX003 (ip), vehicle: saline with Tween-80.
Setting [7] is: dose: 200.0 mg/kg/injection, schedule: Q01DX009 (ip), vehicle: saline with Tween-80.
The mark [8] stands for this setting: dose: 6.25 mg/kg/injection, schedule: Q01DX009 (ip), vehicle: saline.
The mark [9] stands for this setting: dose: 12.5 mg/kg/injection, schedule: Q01DX009 (ip), vehicle: saline.
Where [10] appears, read: dose: 50.0 mg/kg/injection, schedule: Q01DX009 (ip), vehicle: saline.
The mark [11] stands for this setting: dose: 25.0 mg/kg/injection, schedule: Q01DX009 (ip), vehicle: Klucel (hydroxypropylcellulose) (HPC).

Molecules are shown by their SMILES. Values joined by “and” are separate entries in the source; they are usually repeats but may differ in a detail not shown here. Identical values can stand only once. Toxic doses and inconclusive results are not listed.

Regarding `CNC(=S)N/N=C(\C)c1snc(C)c1Br`, the T/C runs as follows: under setting [1], 94 % of control; under setting [2], 103 % of control; under setting [3], 96 % of control.

Take `CC(Br)C(=O)NCC(=O)O` (stereo unspecified): the T/C is 90 % of control under setting [4], 95 % of control under setting [5] and 100 % of control under setting [6].

For `Oc1ccc(C(O)(c2ccccc2)c2ccc(O)c3ccccc23)c2ccccc12`, the T/C runs as follows: under setting [3], 95 % of control; under setting [7], 103 % of control; (dose: 400.0 mg/kg/injection, schedule: Q01DX009 (ip), vehicle: saline with Tween-80) 110 % of control.

With `O=C(O)CCNSc1ccccc1[N+](=O)[O-]`, the T/C was 106 % of control under setting [2] and 106 % of control under setting [3].

Turning to `OCC1CSCN1` (stereo unspecified), the T/C is 100 % of control (dose: 50.0 mg/kg/injection, schedule: Q04DX002 (ip), vehicle: saline); 103 % of control (dose: 100.0 mg/kg/injection, schedule: Q04DX002 (ip), vehicle: saline); 98 % of control (dose: 200.0 mg/kg/injection, schedule: Q04DX002 (ip), vehicle: saline).

As to `Cn1ccn(C2CCCCC2)c1=O`, the T/C was 95 % of control (dose: 25.0 mg/kg/injection, schedule: Q04DX003 (ip), vehicle: saline with Tween-80) and 100 % of control under setting [4].

Regarding `CC(N)C(=O)NCC(=O)NCC(=O)O` (stereo unspecified), the T/C (dose: 100.0 mg/kg/injection, schedule: Q01DX009 (ip), vehicle: saline) was 95 % of control; the T/C (dose: 100.0 mg/kg/injection, schedule: Q04DX003 (ip), vehicle: saline) was 104 % of control; the T/C (dose: 200.0 mg/kg/injection, schedule: Q01DX009 (ip), vehicle: saline) was 104 % of control; the T/C (dose: 200.0 mg/kg/injection, schedule: Q04DX003 (ip), vehicle: saline) is 95 % of control; the T/C (dose: 400.0 mg/kg/injection, schedule: Q01DX009 (ip), vehicle: saline) is 100 % of control; the T/C (dose: 400.0 mg/kg/injection, schedule: Q04DX003 (ip), vehicle: saline) is 95 % of control.

On to `COC(=O)C1C2CC[N+]3(CCCCC13)O2` (stereo unspecified), for which the T/C is, setting by setting: (dose: 3.13 mg/kg/injection, schedule: Q01DX009 (ip), vehicle: saline) 100 % of control; under setting [8], 100 % of control; under setting [9], 93 % of control and 109 % of control; under setting [10], 105 % of control.

For the compound `COc1ccc(NC(C)=O)c(/C=N/Nc2ccc([N+](=O)[O-])cc2[N+](=O)[O-])c1`, the T/C is 89 % of control (dose: 50.0 mg/kg/injection, schedule: Q04DX002 (ip), vehicle: saline with Tween-80); 106 % of control (dose: 100.0 mg/kg/injection, schedule: Q04DX002 (ip), vehicle: saline with Tween-80); 106 % of control (dose: 200.0 mg/kg/injection, schedule: Q04DX002 (ip), vehicle: saline with Tween-80).

As for `Cc1c2c(cc3c1[nH]c1ccccc13)C=NCC2`, the T/C under setting [2] was 93 % of control, the T/C under setting [3] was 99 % of control and the T/C under setting [7] was 101 % of control.

Consider `COC(=O)c1ncccc1C(=O)O`, for which the T/C is, setting by setting: under setting [1], 86 % of control; under setting [2], 95 % of control; under setting [3], 90 % of control.

With `Nc1nc(N)c2nc(CNc3ccc(C(=O)NC(CC(=O)O)C(=O)O)cc3)cnc2n1` (stereo unspecified), the T/C is, setting by setting: (dose: 66.0 mg/kg/injection, schedule: Q04DX003 (ip), vehicle: saline with Tween-80) 104 % of control; under setting [5], 100 % of control.

As to `CNC(=O)OCc1c(COC(=O)NC)c(-c2ccc(Cl)cc2)n2c1CCC2`, the T/C (dose: 50.0 mg/kg/injection, schedule: Q01DX009 (ip), vehicle: Klucel (hydroxypropylcellulose) (HPC)) is 96 % of control.

Turning to `c1ccc([B-]2([C+]3CCCCC3)N3CCCCC3C3CCCCN32)cc1` (stereo unspecified), the T/C is 119 % of control (dose: 12.5 mg/kg/injection, schedule: Q01DX009 (ip), vehicle: Klucel (hydroxypropylcellulose) (HPC)) and 119 % of control under setting [11].

In the case of `CC[n+]1cc(-c2ccc(NC(=O)/C=C\c3ccc(C(=O)Nc4ccc(-c5c[n+](CC)c(N)nc5N)cc4)cc3)cc2)c(N)nc1N`, the T/C is, setting by setting: (dose: 33.0 mg/kg/injection, schedule: Q04DX003 (ip), vehicle: saline with Tween-80) 195 % of control; under setting [4], 272 % of control; (dose: 75.0 mg/kg/injection, schedule: Q04DX003 (ip), vehicle: saline with Tween-80) 272 % of control.

As to `CC(C)CCNc1ncnc2[nH]ncc12`, the T/C reads like this: (dose: 5.5 mg/kg/injection, schedule: Q01DX009 (ip), vehicle: Klucel (hydroxypropylcellulose) (HPC)) 95 % of control; (dose: 8.2 mg/kg/injection, schedule: Q01DX009 (ip), vehicle: Klucel (hydroxypropylcellulose) (HPC)) 100 % of control; (dose: 18.75 mg/kg/injection, schedule: Q04DX003 (ip), vehicle: Klucel (hydroxypropylcellulose) (HPC)) 86 % of control; under setting [11], 90 % of control; under setting [1], 90 % of control; (dose: 37.5 mg/kg/injection, schedule: Q04DX003 (ip), vehicle: Klucel (hydroxypropylcellulose) (HPC)) 104 % of control. Moreover, the T/C under setting [2] was 90 % of control and the T/C (dose: 75.0 mg/kg/injection, schedule: Q04DX003 (ip), vehicle: Klucel (hydroxypropylcellulose) (HPC)) was 86 % of control.

Regarding `Cc1ccc(C(O)c2c(C)cc(C)cc2C)c(C)c1` (stereo unspecified), the T/C (dose: 100.0 mg/kg/injection, schedule: Q01DX001 (ip), vehicle: saline with Tween-80) is 100 % of control; the T/C (dose: 200.0 mg/kg/injection, schedule: Q01DX001 (ip), vehicle: saline with Tween-80) is 100 % of control; the T/C (dose: 400.0 mg/kg/injection, schedule: Q01DX001 (ip), vehicle: saline with Tween-80) was 100 % of control.

Turning to `CCOC(=O)/C=C\CBr`, the T/C reads like this: (dose: 1.5 mg/kg/injection, schedule: Q01DX010 (ip), vehicle: saline) 100 % of control; (dose: 3.0 mg/kg/injection, schedule: Q01DX010 (ip), vehicle: saline) 100 % of control; (dose: 6.0 mg/kg/injection, schedule: Q01DX010 (ip), vehicle: saline) 105 % of control; (dose: 12.0 mg/kg/injection, schedule: Q01DX010 (ip), vehicle: saline) 100 % of control and 115 % of control; (dose: 24.0 mg/kg/injection, schedule: Q01DX010 (ip), vehicle: saline) 100 % of control; (dose: 48.0 mg/kg/injection, schedule: Q01DX010 (ip), vehicle: saline) 120 % of control.

With `OC(COc1cccc(C(F)(F)F)c1)CN1CCN(c2ccc(F)cc2)CC1` (stereo unspecified), the T/C is, setting by setting: under setting [1], 96 % of control; under setting [2], 96 % of control; under setting [3], 118 % of control.

With `COC(=O)c1ccc(OCCOc2ccc(C(C)(C)CC(C)(C)C)cc2)c([N+](=O)[O-])c1`, the T/C is 100 % of control (dose: 100.0 mg/kg/injection, schedule: Q04DX003 (ip), vehicle: saline sonified); 86 % of control (dose: 200.0 mg/kg/injection, schedule: Q04DX003 (ip), vehicle: saline sonified); 86 % of control (dose: 400.0 mg/kg/injection, schedule: Q04DX003 (ip), vehicle: saline sonified).

In the case of `CC(=O)CC(C)=O.CC(=O)CC(C)=O.[CH3][Sn][CH3]`, the T/C by setting is: (dose: 25.0 mg/kg/injection, schedule: Q01DX001 (ip), vehicle: Klucel (hydroxypropylcellulose) (HPC)) 111 % of control; (dose: 50.0 mg/kg/injection, schedule: Q01DX001 (ip), vehicle: Klucel (hydroxypropylcellulose) (HPC)) 119 % of control.

With `C=CCN(CC=C)CCN(CC)CC`, the T/C under setting [8] was 111 % of control; the T/C under setting [9] was 101 % of control; the T/C (dose: 25.0 mg/kg/injection, schedule: Q01DX009 (ip), vehicle: saline) was 109 % of control; the T/C under setting [10] is 101 % of control.

On to `O=C(Nc1ccc(NC(=O)Nc2ccc(C3=NCCCN3)cc2)cc1)Nc1ccc(C2=NCCCN2)cc1`, for which the T/C is 122 % of control (dose: 8.3 mg/kg/injection, schedule: Q04DX003 (ip), vehicle: saline); 122 % of control (dose: 12.0 mg/kg/injection, schedule: Q04DX003 (ip), vehicle: saline); 165 % of control (dose: 19.0 mg/kg/injection, schedule: Q04DX003 (ip), vehicle: saline); 175 % of control (dose: 29.0 mg/kg/injection, schedule: Q04DX003 (ip), vehicle: saline); 154 % of control (dose: 65.0 mg/kg/injection, schedule: Q04DX003 (ip), vehicle: saline); 163 % of control (dose: 95.0 mg/kg/injection, schedule: Q04DX003 (ip), vehicle: saline).

As for `O=c1cc(-c2ccccc2)[nH]c(=S)[nH]1`, the T/C is, setting by setting: under setting [5], 95 % of control; under setting [6], 104 % of control; (dose: 400.0 mg/kg/injection, schedule: Q04DX003 (ip), vehicle: saline with Tween-80) 100 % of control.

The record behind these values is PubChem BioAssay AID328 (DTP/NCI, 2004).
